12 compounds from patent US12448389B2, “BRM targeting compounds and associated methods of use” (Prelude Therapeutics Incorporated, priority 2020, dated 2025) can be followed below.

In one experiment the target is T1, SMARCA2-HiBiT (Homo sapiens, UniProt P51531).
T1 construct: SMARCA2-HiBiT knock-in Hela monoclonal cell (CS302366); host or cells: HeLa monoclonal knock-in line (CRISPR HiBiT knock-in at the endogenous locus, heterozygous)
As to the kind of experiment: SMARCA2 HiBiT degradation assay in HeLa cells. It counts as cell-based. The settings on record: 18 hours incubation; for DC50: read-out: HeLa_HiBit-SM2 DC50; for Dmax: HeLa, read-out: HeLa-HiBit-SM2 Dmax (%). On the procedure: (§1) HiBiT peptide knock-in of SMARCA2 in LgBiT expressing HEK293T cells was performed by CRISPR-mediated tagging system as described Promega. The homozygous HiBiT knock-in on c-terminus SMARCA2 was confirmed by sanger sequence. SMARCA2-HiBiT knock-in Hela monoclonal cell (CS302366) and SMARCA4-HiBiT knock-in Hela monoclonal cell (CS3023226) were purchased from Promega. The heterozygous HiBiT-knock-in was confirmed by sanger sequence in both SMARCA2-HiBiT and SMARCA4-HiBiT monoclonal cells.
(§2) SMARCA2 HiBiT and SMARCA4 HiBiT Degradation Assay in HeLa Cells
(§3) Dispense 10 ul aliquot of prepared Hela-SMARCA2-HiBiT or Hela-SMARCA4-HiBiT cells (1:1 ratio of cells:Trypan Blue (#1450013, Bio-Rad)) onto cell counting slide (#145-0011, Bio-Rad) and obtain cell density and cell viability using cell counter (TC20, Bio-Rad). Remove appropriate volume of resuspended cells from culture flask to accommodate 2500 cells/well @20 μL/well. Transfer Hela-HiBiT cells to 50 mL conical (#430290, Corning). Spin down at 1000 rpm for 5 min using tabletop centrifuge (SPINCHRON 15, Beckman). Discard supernatant and resuspend cell pellet in modified EMEM (#30-2003, ATCC) cell culture media containing 10% FBS (F2422-500ML, Sigma), and 1×Penicillin/Streptomycin (200 g/L) (30-002-CI, Corning) to a cell density of 125,000 cells/mL. Dispense 20 μL of resuspended Hela-HiBit cells per well in 384-well TC treated plate (#12-565-343, Thermo Scientific) using standard cassette (#50950372, Thermo Scientific) on Multidrop Combi (#5840310, Thermo Scientific) inside laminar flow cabinet. Dispense test compounds onto plates using digital liquid dispenser (D300E, Tecan). Incubate plates in humidified tissue culture incubator @37° C. for 18 hours. Add 20 μL of prepared Nano-Glo® HiBiT Lytic detection buffer (N3050, Promega) to each well of 384-well plate using small tube cassette (#24073295, Thermo Scientific) on Multidrop Combi, incubate @RT for 30-60 min. Read plates on microplate reader (Envision 2105, PerkinElmer) using 384 well Ultra-Sensitive luminescence mode. Raw data files and compound information reports are swept into centralized data lake and deconvoluted using automated scripts designed by TetraScience, Inc. Data analysis, curve-fitting and reporting done in Dotmatics Informatics Suite using Screening Ultra module.
A general note: The HiBiT peptide binds its large partner to form an active luciferase.

Another experiment has as its target T2, SMARCA4-HiBiT (Homo sapiens, UniProt P51532).
T2 construct: SMARCA4-HiBiT knock-in Hela monoclonal cell (CS3023226); host or cells: HeLa monoclonal knock-in line (CRISPR HiBiT knock-in at the endogenous locus, heterozygous)
The experiment can be described thus: SMARCA4 HiBiT degradation assay in HeLa cells. Format: cell-based. Conditions: 18 hours incubation; for DC50: read-out: HeLa-HiBit-SM4 DC50; for Dmax: HeLa, read-out: HeLa-HiBit-SM4 Dmax (%). As to the method: as §1, §2, §3

T1 sequence (P51531 whole entry): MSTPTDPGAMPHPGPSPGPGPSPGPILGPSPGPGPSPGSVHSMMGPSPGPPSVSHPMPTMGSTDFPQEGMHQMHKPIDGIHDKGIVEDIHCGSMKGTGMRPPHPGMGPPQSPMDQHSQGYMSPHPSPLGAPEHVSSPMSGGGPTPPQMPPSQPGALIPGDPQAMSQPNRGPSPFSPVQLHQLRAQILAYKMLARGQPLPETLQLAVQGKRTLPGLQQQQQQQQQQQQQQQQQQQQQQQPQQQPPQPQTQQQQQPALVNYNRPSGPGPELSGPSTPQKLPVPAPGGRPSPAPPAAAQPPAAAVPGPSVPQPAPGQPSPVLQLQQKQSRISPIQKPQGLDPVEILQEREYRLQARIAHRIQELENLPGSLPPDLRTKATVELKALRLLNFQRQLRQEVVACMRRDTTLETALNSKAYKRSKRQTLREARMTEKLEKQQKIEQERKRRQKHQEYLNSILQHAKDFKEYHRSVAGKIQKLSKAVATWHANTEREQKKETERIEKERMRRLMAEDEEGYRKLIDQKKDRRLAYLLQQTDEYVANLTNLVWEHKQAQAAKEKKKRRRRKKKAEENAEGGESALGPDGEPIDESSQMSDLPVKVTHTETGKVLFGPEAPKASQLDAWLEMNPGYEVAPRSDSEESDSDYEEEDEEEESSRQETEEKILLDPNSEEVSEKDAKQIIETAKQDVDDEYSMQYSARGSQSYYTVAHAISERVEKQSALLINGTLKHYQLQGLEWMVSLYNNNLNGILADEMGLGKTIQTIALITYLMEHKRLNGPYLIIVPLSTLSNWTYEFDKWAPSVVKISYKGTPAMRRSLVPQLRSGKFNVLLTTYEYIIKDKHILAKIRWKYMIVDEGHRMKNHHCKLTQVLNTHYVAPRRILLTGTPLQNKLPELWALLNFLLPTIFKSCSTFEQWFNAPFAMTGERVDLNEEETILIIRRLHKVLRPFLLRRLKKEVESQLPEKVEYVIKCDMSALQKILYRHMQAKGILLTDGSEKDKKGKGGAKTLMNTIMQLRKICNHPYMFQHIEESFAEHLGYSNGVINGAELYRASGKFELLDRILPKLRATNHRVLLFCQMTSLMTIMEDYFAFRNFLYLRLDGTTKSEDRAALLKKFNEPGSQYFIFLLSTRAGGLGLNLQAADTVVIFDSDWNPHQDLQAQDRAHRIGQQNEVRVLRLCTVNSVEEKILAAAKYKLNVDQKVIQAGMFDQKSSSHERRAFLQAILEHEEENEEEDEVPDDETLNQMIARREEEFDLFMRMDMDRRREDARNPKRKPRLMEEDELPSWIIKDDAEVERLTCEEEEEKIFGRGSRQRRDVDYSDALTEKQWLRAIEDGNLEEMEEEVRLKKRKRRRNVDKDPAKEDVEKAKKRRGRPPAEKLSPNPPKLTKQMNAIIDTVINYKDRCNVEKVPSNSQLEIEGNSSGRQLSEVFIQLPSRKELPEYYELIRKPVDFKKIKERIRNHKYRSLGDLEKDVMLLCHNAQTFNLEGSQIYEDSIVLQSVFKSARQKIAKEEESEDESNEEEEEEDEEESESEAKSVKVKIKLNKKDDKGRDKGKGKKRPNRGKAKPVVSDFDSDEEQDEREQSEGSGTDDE
T2 sequence (P51532 whole entry): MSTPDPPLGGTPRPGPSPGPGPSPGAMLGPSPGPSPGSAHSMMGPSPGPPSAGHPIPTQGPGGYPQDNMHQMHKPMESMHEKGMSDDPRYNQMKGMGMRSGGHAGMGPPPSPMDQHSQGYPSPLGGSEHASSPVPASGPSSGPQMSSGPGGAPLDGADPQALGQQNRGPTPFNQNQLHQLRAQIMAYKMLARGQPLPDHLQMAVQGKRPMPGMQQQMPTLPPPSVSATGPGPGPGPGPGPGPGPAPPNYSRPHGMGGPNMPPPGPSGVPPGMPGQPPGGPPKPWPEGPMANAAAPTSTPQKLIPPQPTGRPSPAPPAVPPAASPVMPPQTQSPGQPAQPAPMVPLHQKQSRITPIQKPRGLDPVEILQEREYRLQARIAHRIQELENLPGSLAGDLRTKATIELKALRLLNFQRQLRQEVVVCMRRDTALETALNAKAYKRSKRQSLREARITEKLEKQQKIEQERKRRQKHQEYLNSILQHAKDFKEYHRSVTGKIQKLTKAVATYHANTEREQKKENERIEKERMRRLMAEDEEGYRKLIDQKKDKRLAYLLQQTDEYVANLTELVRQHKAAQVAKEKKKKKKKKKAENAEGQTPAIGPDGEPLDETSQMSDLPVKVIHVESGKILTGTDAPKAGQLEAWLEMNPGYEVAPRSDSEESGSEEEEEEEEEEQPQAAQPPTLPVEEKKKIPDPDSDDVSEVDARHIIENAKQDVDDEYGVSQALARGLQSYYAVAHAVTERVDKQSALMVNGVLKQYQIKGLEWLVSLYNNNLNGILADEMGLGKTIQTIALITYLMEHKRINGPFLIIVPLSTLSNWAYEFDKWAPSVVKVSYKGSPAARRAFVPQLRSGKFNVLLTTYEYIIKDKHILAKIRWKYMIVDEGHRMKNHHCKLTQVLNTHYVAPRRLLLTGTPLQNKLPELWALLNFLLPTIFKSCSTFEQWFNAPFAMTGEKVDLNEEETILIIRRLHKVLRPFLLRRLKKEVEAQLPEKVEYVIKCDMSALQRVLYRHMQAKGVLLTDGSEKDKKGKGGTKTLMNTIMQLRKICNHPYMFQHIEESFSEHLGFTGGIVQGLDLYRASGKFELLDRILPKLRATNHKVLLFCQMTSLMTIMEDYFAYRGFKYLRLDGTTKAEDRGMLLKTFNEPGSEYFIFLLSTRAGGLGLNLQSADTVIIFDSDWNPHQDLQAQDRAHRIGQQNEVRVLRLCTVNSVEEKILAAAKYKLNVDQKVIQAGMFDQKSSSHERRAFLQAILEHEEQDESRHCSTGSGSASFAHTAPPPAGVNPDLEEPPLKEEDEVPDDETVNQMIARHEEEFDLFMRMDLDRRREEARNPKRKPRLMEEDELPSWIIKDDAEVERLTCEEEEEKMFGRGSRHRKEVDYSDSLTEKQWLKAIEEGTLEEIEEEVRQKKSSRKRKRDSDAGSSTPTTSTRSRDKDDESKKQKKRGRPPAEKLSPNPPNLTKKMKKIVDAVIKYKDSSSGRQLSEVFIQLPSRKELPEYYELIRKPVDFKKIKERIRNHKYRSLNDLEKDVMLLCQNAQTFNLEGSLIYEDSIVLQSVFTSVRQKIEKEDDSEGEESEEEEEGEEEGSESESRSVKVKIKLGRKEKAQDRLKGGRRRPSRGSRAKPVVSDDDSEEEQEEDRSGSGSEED

For `O=C1CCC(N2C(=O)c3ccc(N4CCC(CN5CCC(CN6CCN7c8cc(-c9ccccc9O)nnc8NC[C@H]7C6)C5)CC4)cc3C2=O)C(=O)N1` (stereo partly drawn) [Example 33, 2-(2,6-dioxopiperidin-3-yl)-5-(4-((3-(((S)-2-(2-hydroxyphenyl)-5,6,6a,7,9,10-hexahydro-8H-pyrazino[1′,2′:4,5]pyrazino[2,3-c]pyridazin-8-yl)methyl)pyrrolidin-1-yl)methyl)piperidin-1-yl)isoindoline-1,3-dione], at SMARCA2-HiBiT, the DC50 (usually the concentration at which degradation of the target reaches its halfway point) is below 10 nM and the Dmax – broadly, the greatest extent of degradation seen – was above 85%. Besides, at SMARCA4-HiBiT, the DC50 was below 10 nM and the Dmax lay within 75 to 85%.

`CC(C)(C)C(=O)OCN1C(=O)CCC(N2C(=O)c3ccc(N4CCC(CN5CCC(CN6CCN7c8cc(-c9ccccc9O)nnc8NC[C@H]7C6)CC5)CC4)cc3C2=O)C1=O` (stereo partly drawn) [Example 34, (3-(5-(4-((4-(((S)-2-(2-hydroxyphenyl)-5,6,6a,7,9,10-hexahydro-8H-pyrazino [1′,2′:4,5]pyrazino[2,3-c]pyridazin-8-yl)methyl)piperidin-1-yl)methyl)piperidin-1-yl)-1,3-dioxoisoindolin-2-yl)-2,6-dioxopiperidin-1-yl)methyl pivalate]: on SMARCA2-HiBiT, the DC50 is below 10 nM and the Dmax is above 85%. Besides, at SMARCA4-HiBiT, the DC50 was below 10 nM and the Dmax is above 85%.

Turning to `O=C1CCC(N2C(=O)c3ccc(N4CCC(CN5CCCC(CN6CCN7c8cc(-c9ccccc9O)nnc8NC[C@H]7C6)C5)CC4)cc3C2=O)C(=O)N1` (stereo partly drawn) [Example 35, 2-(2,6-dioxopiperidin-3-yl)-5-(4-((3-(((S)-2-(2-hydroxyphenyl)-5,6,6a,7,9,10-hexahydro-8H-pyrazino[1′,2′:4,5]pyrazino[2,3-c]pyridazin-8-yl)methyl)piperidin-1-yl)methyl)piperidin-1-yl)isoindoline-1,3-dione], at SMARCA2-HiBiT, the DC50 is below 10 nM and the greatest degradation seen (Dmax) lay in the range of 75 to 85%. Also, on SMARCA4-HiBiT, the DC50 is below 10 nM and the Dmax lay in the range of 50 to 75%.

As for `O=C1CCC(N2C(=O)c3ccc(N4CCC(CN5CC(CN6CCN7c8cc(-c9ccccc9O)nnc8NC[C@H]7C6)C5)CC4)cc3C2=O)C(=O)N1` (stereo partly drawn) [Example 36, 2-(2,6-dioxopiperidin-3-yl)-5-(4-((3-(((S)-2-(2-hydroxyphenyl)-5,6,6a,7,9,10-hexahydro-8H-pyrazino[1′,2′:4,5]pyrazino[2,3-c]pyridazin-8-yl)methyl)azetidin-1-yl)methyl)piperidin-1-yl)isoindoline-1,3-dione], at SMARCA2-HiBiT, the DC50 is below 10 nM and the Dmax was above 85%. Besides, at SMARCA4-HiBiT, the DC50 was below 10 nM and the Dmax is 75 to 85%.

`CC1(CN2CCN3c4cc(-c5ccccc5O)nnc4NC[C@H]3C2)CCN(CC2CCN(c3ccc4c(c3)C(=O)N(C3CCC(=O)NC3=O)C4=O)CC2)CC1` (stereo partly drawn) [Example 37, 2-(2,6-dioxopiperidin-3-yl)-5-(4-((4-(((S)-2-(2-hydroxyphenyl)-5,6,6a,7,9,10-hexahydro-8H-pyrazino[1′,2′:4,5]pyrazino[2,3-c]pyridazin-8-yl)methyl)-4-methylpiperidin-1-yl)methyl)piperidin-1-yl)isoindoline-1,3-dione]: on SMARCA2-HiBiT, the DC50 is below 10 nM and the Dmax is above 85%. Moreover, at SMARCA4-HiBiT, the DC50 was below 10 nM and the Dmax was above 85%.

As for `O=C1CCC(N2C(=O)c3ccc(N4CCC(CN5CCC(O)(CN6CCN7c8cc(-c9ccccc9O)nnc8NC[C@H]7C6)CC5)CC4)cc3C2=O)C(=O)N1` (stereo partly drawn) [Example 38, 2-(2,6-dioxopiperidin-3-yl)-5-(4-((4-hydroxy-4-(((S)-2-(2-hydroxyphenyl)-5,6,6a,7,9,10-hexahydro-8H-pyrazino[1′,2′:4,5]pyrazino[2,3-c]pyridazin-8-yl)methyl)piperidin-l-yl)methyl)piperidin-1-yl)isoindoline-1,3-dione], at SMARCA2-HiBiT, the DC50 was below 10 nM and the Dmax is above 85%. At SMARCA4-HiBiT, the DC50 was below 10 nM and the Dmax was above 85%.

Consider `O=C1CCC(N2C(=O)c3ccc(N4CCC(CN5CC6CC(C5)C6CN5CCN6c7cc(-c8ccccc8O)nnc7NC[C@H]6C5)CC4)cc3C2=O)C(=O)N1` (stereo partly drawn) [Example 39, 2-(2,6-dioxopiperidin-3-yl)-5-(4-((6-(((S)-2-(2-hydroxyphenyl)-5,6,6a,7,9,10-hexahydro-8H-pyrazino[1′,2′:4,5]pyrazino[2,3-c]pyridazin-8-yl)methyl)-3-azabicyclo[3.1.1]heptan-3-yl)methyl)piperidin-1-yl)isoindoline-1,3-dione], for which the DC50 on SMARCA2-HiBiT and on SMARCA4-HiBiT was below 10 nM throughout. Moreover, the results for the greatest degradation seen (Dmax) at SMARCA2-HiBiT and at SMARCA4-HiBiT were above 85% and 50 to 75%, respectively.

Take `CN(CCCN1CCN2c3cc(-c4ccccc4O)nnc3NC[C@H]2C1)CC1CCN(c2ccc3c(c2)C(=O)N(C2CCC(=O)NC2=O)C3=O)CC1` (stereo partly drawn) [Example 40, 2-(2,6-dioxopiperidin-3-yl)-5-(4-(((3-((S)-2-(2-hydroxyphenyl)-5,6,6a,7,9,10-hexahydro-8H-pyrazino[1′,2′:4,5]pyrazino[2,3-c]pyridazin-8-yl)propyl)(methyl)amino)methyl)piperidin-1-yl)isoindoline-1,3-dione]: the DC50 at SMARCA2-HiBiT and at SMARCA4-HiBiT was below 10 nM each time. Also, the Dmax on SMARCA2-HiBiT and on SMARCA4-HiBiT was 50 to 75% throughout.

With `O=C1CCC(N2C(=O)c3ccc(N4CCC(CN5CC6(CC(CN7CCN8c9cc(-c%10ccccc%10O)nnc9NC[C@H]8C7)C6)C5)CC4)cc3C2=O)C(=O)N1` (stereo partly drawn) [Example 41, 2-(2,6-dioxopiperidin-3-yl)-5-(4-((6-(((S)-2-(2-hydroxyphenyl)-5,6,6a,7,9,10-hexahydro-8H-pyrazino[1′,2′:4,5]pyrazino[2,3-c]pyridazin-8-yl)methyl)-2-azaspiro[3.3]heptan-2-yl)methyl)piperidin-1-yl)isoindoline-1,3-dione], at SMARCA2-HiBiT, the DC50 is below 10 nM and the Dmax is above 85%. Moreover, at SMARCA4-HiBiT, the DC50 is below 10 nM and the maximal degradation (Dmax) is above 85%.

As to `O=C1CCC(N2C(=O)c3ccc(N4CCC(CN5C[C@@H]6[C@H](C5)[C@H]6CN5CCN6c7cc(-c8ccccc8O)nnc7NC[C@H]6C5)CC4)cc3C2=O)C(=O)N1` (stereo partly drawn) [Example 42, 2-(2,6-dioxopiperidin-3-yl)-5-(4-(((1R,5S,6r)-6-(((S)-2-(2-hydroxyphenyl)-5,6,6a,7,9,10-hexahydro-8H-pyrazino[1′,2′:4,5]pyrazino[2,3-c]pyridazin-8-yl)methyl)-3-azabicyclo[3.1.0]hexan-3-yl)methyl)piperidin-1-yl)isoindoline-1,3-dione], on SMARCA2-HiBiT, the 50% degradation concentration (DC50) was below 10 nM and the Dmax was above 85%. On SMARCA4-HiBiT, the DC50 is below 10 nM and the Dmax is 50 to 75%.

For the compound `O=C1CCC(N2C(=O)c3ccc(N4CCC(CN5C[C@@H]6[C@H](C5)[C@@H]6CN5CCN6c7cc(-c8ccccc8O)nnc7NC[C@H]6C5)CC4)cc3C2=O)C(=O)N1` (stereo partly drawn) [Example 43, 2-(2,6-dioxopiperidin-3-yl)-5-(4-(((1R,5S,6s)-6-(((S)-2-(2-hydroxyphenyl)-5,6,6a,7,9,10-hexahydro-8H-pyrazino[1′,2′:4,5]pyrazino[2,3-c]pyridazin-8-yl)methyl)-3-azabicyclo[3.1.0]hexan-3-yl)methyl)piperidin-1-yl)isoindoline-1,3-dione], at SMARCA2-HiBiT, the DC50 was below 10 nM and the Dmax is above 85%. On SMARCA4-HiBiT, the DC50 is below 10 nM and the Dmax is 50 to 75%.

Consider `C[C@H]1CN2c3cc(-c4ccccc4O)nnc3NC[C@H]2CN1C[C@H]1[C@@H]2CN(CC3CCN(c4ccc5c(c4)C(=O)N(C4CCC(=O)NC4=O)C5=O)CC3)C[C@@H]21` (stereo partly drawn) [Example 44, 2-(2,6-dioxopiperidin-3-yl)-5-(4-(((1R,5S,6r)-6-(((6aS,9S)-2-(2-hydroxyphenyl)-9-methyl-5,6,6a,7,9,10-hexahydro-8H-pyrazino[1′,2′:4,5]pyrazino[2,3-c]pyridazin-8-yl)methyl)-3-azabicyclo[3.1.0]hexan-3-yl)methyl)piperidin-1-yl)isoindoline-1,3-dione], for which, at SMARCA2-HiBiT, the DC50 is below 10 nM and the Dmax lay in the range of 75 to 85%. Further, on SMARCA4-HiBiT, the DC50 was below 10 nM and the Dmax was in the range of 50 to 75%.
